Experimental data published in patent publication US20230000996A1, “RAPAFUCIN DERIVATIVE COMPOUNDS AND METHODS OF USE THEREOF” (The Johns Hopkins University, priority 2019, published 2023).

test system: not listed separately; assay: Nucleoside uptake, single concentration assay (Rel.Uptake); cell line indicated in each table; assay type: cell-based; conditions: nucleoside uptake, single concentration assay, 293T cells, response relative to DMSO
Experimental: Nucleoside Uptake Assay (uptake). Nuceloside uptake assays were performed with using 3H-Thymidine as described in Guo et al. (2018) Nat. Chem. 11:254-63. Specific cell lines are indicated in each assay and cultured in complete growth media. Activity is scored according to the IC50 values relative to DMSO control. “Low” indicates an IC50 greater than 600 nM, “Medium” indicates an IC50 between 300 nM and 600 nM “High” indicates an IC50 less than 300 nM. “Rel.Uptake” refers to uptake activity characterization relative to a single concentration assay. “Low” indicates a response greater than 0.6 times the activity relative to DMSO, “Medium” indicates a response between 0.6 and 0.3 times the activity relative to DMSO, “High” indicates a response less than 0.3 times the activity relative to DMSO.

Row | Structure (SMILES) | Rel. Uptake, 293T
1 | COc1cc(CC[C@H]2OC(=O)[C@@H]3CCCCN3C(=O)C(=O)C(C)(C)COC(=O)C=CCCN(C)C(=O)[C@@H](Cc3ccccc3)NC(=O)CN(C)C(=O)[C@@H](Cc3ccccc3)NC(=O)[C@H](Cc3ccc(O)cc3)N(C)C(=O)COc3cccc2c3)c(OC)c(OC)c1 [Compound 1582] | low
2 | COc1ccc(OC)c(OC)c1CC[C@H]1OC(=O)[C@@H]2CCCCN2C(=O)C(=O)C(C)(C)COC(=O)C=CCCN(C)C(=O)[C@@H](Cc2ccccc2)NC(=O)CN(C)C(=O)[C@@H](Cc2ccccc2)NC(=O)[C@H](Cc2ccc(O)cc2)N(C)C(=O)COc2cccc1c2 [Compound 1583] | low
3 | COc1ccc(CC[C@H]2OC(=O)[C@@H]3CCCCN3C(=O)C(=O)C(C)(C)COC(=O)C=CCCN(C)C(=O)[C@@H](Cc3ccccc3)NC(=O)CN(C)C(=O)[C@@H](Cc3ccccc3)NC(=O)[C@H](Cc3ccc(O)cc3)N(C)C(=O)COc3cccc2c3)c(O)c1OC [Compound 1584] | low
4 | COc1ccc(CC[C@H]2OC(=O)[C@@H]3CCCCN3C(=O)C(=O)C(C)(C)COC(=O)C=CCCN(C)C(=O)[C@H](CC(C)C)N(C)C(=O)[C@H]3CCCN3C(=O)[C@H](Cc3ccc(CNC(=O)c4ccccc4)cc3)NC(=O)[C@H](c3ccccc3)NC(=O)CCC(=O)Nc3cccc2c3)cc1OC [Compound 1585] | High (“High” indicates a response less than 0.3 times the activity relative to DMSO)
5 | COc1ccc(CC[C@H]2OC(=O)[C@@H]3CCCCN3C(=O)C(=O)C(C)(C)COC(=O)C=CCCN(C)C(=O)[C@H](CC(C)C)N(C)C(=O)[C@H]3CCCN3C(=O)[C@H](Cc3ccc(CNC(=O)Cc4ccccc4)cc3)NC(=O)[C@H](c3ccccc3)NC(=O)CCC(=O)Nc3cccc2c3)cc1OC [Compound 1586] | Med
6 | COc1ccc(CC[C@H]2OC(=O)[C@@H]3CCCCN3C(=O)C(=O)C(C)(C)COC(=O)C=CCCN(C)C(=O)[C@H](CC(C)C)N(C)C(=O)[C@H]3CCCN3C(=O)[C@H](Cc3ccc(CNC(=O)CN(C)C)cc3)NC(=O)[C@H](c3ccccc3)NC(=O)CCC(=O)Nc3cccc2c3)cc1OC [Compound 1587] | Low (“Low” indicates a response greater than 0.6 times the activity relative to DMSO)
7 | COc1ccc(CC[C@H]2OC(=O)[C@@H]3CCCCN3C(=O)C(=O)C(C)(C)COC(=O)C=CCCN(C)C(=O)[C@H](CC(C)C)N(C)C(=O)[C@H]3CCCN3C(=O)[C@H](Cc3cccc(NC(C)=O)c3)NC(=O)[C@H](c3ccccc3)NC(=O)CCC(=O)Nc3cccc2c3)cc1OC [Compound 1588] | High (“High” indicates a response less than 0.3 times the activity relative to DMSO)
8 | COc1ccc(CC[C@H]2OC(=O)[C@@H]3CCCCN3C(=O)C(=O)C(C)(C)COC(=O)C=CCCN(C)C(=O)[C@H](CC(C)C)N(C)C(=O)[C@H]3CCCN3C(=O)[C@H](Cc3ccc(NC(=O)Cc4cccnc4)cc3)NC(=O)[C@H](c3ccccc3)NC(=O)CCC(=O)Nc3cccc2c3)cc1OC [Compound 1589] | Low (“Low” indicates a response greater than 0.6 times the activity relative to DMSO)
9 | COc1ccc(CC[C@H]2OC(=O)[C@@H]3CCCCN3C(=O)C(=O)C(C)(C)COC(=O)C=CCCN(C)C(=O)[C@H](CC(C)C)N(C)C(=O)[C@H]3CCCN3C(=O)[C@H](Cc3ccc(CC(=O)NCc4ccccc4)cc3)NC(=O)[C@H](c3ccccc3)NC(=O)CCC(=O)Nc3cccc2c3)cc1OC [Compound 1590] | High (“High” indicates a response less than 0.3 times the activity relative to DMSO)
10 | CCCCCCNC(=O)Cc1ccc(C[C@@H]2NC(=O)[C@H](c3ccccc3)NC(=O)CCC(=O)Nc3cccc(c3)[C@@H](CCc3ccc(OC)c(OC)c3)OC(=O)[C@@H]3CCCCN3C(=O)C(=O)C(C)(C)COC(=O)C=CCCN(C)C(=O)[C@H](CC(C)C)N(C)C(=O)[C@H]3CCCN3C2=O)cc1 [Compound 1591] | Med
11 | C=C1NCC(=O)N(C)CC/C=C\C(=O)OCC(C)(C)C(=O)C(=O)N2CCCC[C@H]2C(=O)O[C@H](CCc2ccc(OC)c(OC)c2)c2cccc(c2)NC(=O)CCC(=O)N(C)[C@@H](CC(C)C)C(=O)N[C@H](Cc2ccccc2)C(=O)N(C)[C@H]1[C@@H](C)CC [Compound 1592] | Low (“Low” indicates a response greater than 0.6 times the activity relative to DMSO)
12 | COc1ccc(CC[C@H]2OC(=O)[C@@H]3CCCCN3C(=O)C(=O)C(C)(C)COC(=O)C=CCCN(C)C(=O)[C@@H]3CCCN3C(=O)[C@H](COC(C)(C)C)N(C)C(=O)[C@@H](c3ccccc3)NC(=O)[C@H](C)N(C)C(=O)COc3cc(F)cc2c3)cc1OC [Compound 1595] | Low (“Low” indicates a response greater than 0.6 times the activity relative to DMSO)
13 | COc1ccc(CC[C@H]2OC(=O)[C@@H]3CCCCN3C(=O)C(=O)C(C)(C)COC(=O)C=CCCN(C)C(=O)[C@@H]3CCCN3C(=O)[C@H](COC(C)(C)C)N(C)C(=O)[C@H](c3ccccc3)NC(=O)[C@H](C)N(C)C(=O)COc3cc(F)cc2c3)cc1OC [Compound 1596] | Low (“Low” indicates a response greater than 0.6 times the activity relative to DMSO)

test system: A549; assay: Cell proliferation assay (Prolif.), IC50 scored relative to DMSO control; assay type: cell-based; conditions: A549 cells, IC50 class relative to DMSO control
Experimental: Cell Proliferation Assay (Prolif.) Guo et al. (2018) Nat. Chem. 11:254-63. Specific cell lines are indicated in each assay and cultured in complete growth media. Activity is scored according to the IC50 values relative to DMSO control. “Low” indicates an IC50 greater than 600 nM, “Medium” indicates an IC50 between 300 nM and 600 nM “High” indicates an IC50 less than 300 nM. “Rel.Uptake” refers to uptake activity characterization relative to a single concentration assay. “Low” indicates a response greater than 0.6 times the activity relative to DMSO, “Medium” indicates a response between 0.6 and 0.3 times the activity relative to DMSO, “High” indicates a response less than 0.3 times the activity relative to DMSO.

Row | Structure (SMILES) | Prolif, A549
14 | CCCC[C@H]1C(=O)N[C@@H](Cc2ccc3ccccc3c2)C(=O)N(C)[C@@H](COC(C)(C)C)C(=O)NCC(=O)N(C)CCC=CC(=O)OCC(C)(C)C(=O)C(=O)N2CCCC[C@H]2C(=O)O[C@H](CCc2cc(OC)c(OC)c(OC)c2)c2cccc(c2)OCC(=O)N1C [Compound 560] | me- dium
15 | CCCC[C@H]1C(=O)N[C@@H](Cc2ccc3ccccc3c2)C(=O)N(C)[C@@H](COC(C)(C)C)C(=O)NCC(=O)N(C)CCC=CC(=O)OCC(C)(C)C(=O)C(=O)N2CCCC[C@H]2C(=O)O[C@H](CCc2ccc(OC)c(OC)c2OC)c2cccc(c2)OCC(=O)N1C [Compound 561] | me- dium
16 | CCCC[C@H]1C(=O)N[C@@H](Cc2ccc3ccccc3c2)C(=O)N(C)[C@@H](COC(C)(C)C)C(=O)NCC(=O)N(C)CCC=CC(=O)OCC(C)(C)C(=O)C(=O)N2CCCC[C@H]2C(=O)O[C@H](CCc2cc(OC)c(OC)cc2OC)c2cccc(c2)OCC(=O)N1C [Compound 562] | me- dium

same assay, conditions: A549 cells; proliferation response relative to DMSO control, scored low/medium/high

Row | Structure (SMILES) | Rel. Prolif., A549
17 | CCCC[C@H]1C(=O)N[C@@H](Cc2ccc3ccccc3c2)C(=O)N(C)[C@@H](COC(C)(C)C)C(=O)NCC(=O)N(C)CCC=CC(=O)OCC(C)(C)C(=O)C(=O)N2CCCC[C@H]2C(=O)O[C@H](CCc2cc(OC)c(OC)c(OC)c2)c2cccc(c2)OCC(=O)N1C [Compound 560] | medium
18 | CCCC[C@H]1C(=O)N[C@@H](Cc2ccc3ccccc3c2)C(=O)N(C)[C@@H](COC(C)(C)C)C(=O)NCC(=O)N(C)CCC=CC(=O)OCC(C)(C)C(=O)C(=O)N2CCCC[C@H]2C(=O)O[C@H](CCc2ccc(OC)c(OC)c2OC)c2cccc(c2)OCC(=O)N1C [Compound 561] | medium
19 | CCCC[C@H]1C(=O)N[C@@H](Cc2ccc3ccccc3c2)C(=O)N(C)[C@@H](COC(C)(C)C)C(=O)NCC(=O)N(C)CCC=CC(=O)OCC(C)(C)C(=O)C(=O)N2CCCC[C@H]2C(=O)O[C@H](CCc2cc(OC)c(OC)cc2OC)c2cccc(c2)OCC(=O)N1C [Compound 562] | medium
20 | CCCC[C@H]1C(=O)N[C@@H](Cc2ccc3ccccc3c2)C(=O)N(C)[C@@H](COC(C)(C)C)C(=O)NCC(=O)N(C)CCC=CC(=O)OCC(C)(C)C(=O)C(=O)N2CCCC[C@H]2C(=O)O[C@H](CCc2cc(OC)cc(OC)c2OC)c2cccc(c2)OCC(=O)N1C [Compound 563] | low
21 | CCCC[C@H]1C(=O)N[C@@H](Cc2ccc3ccccc3c2)C(=O)N(C)[C@@H](COC(C)(C)C)C(=O)NCC(=O)N(C)CCC=CC(=O)OCC(C)(C)C(=O)C(=O)N2CCCC[C@H]2C(=O)O[C@H](CCc2c(OC)ccc(OC)c2OC)c2cccc(c2)OCC(=O)N1C [Compound 564] | low

same assay, conditions: A549 cells; proliferation response relative to DMSO, single concentration, scored low/medium/high

Row | Structure (SMILES) | Rel. Prolif., A549
22 | C=CC(=O)OCC(C)(C)C(=O)C(=O)N1CCCC[C@H]1C(=O)O[C@H](CCc1ccc(OC)c(OC)c1)c1cncc(NC(=O)CCC(=O)OC(C)(C)C)n1 [Compound 13] | low
